# Test results reported in PubChem BioAssay AID588396 (Broad Institute, 2011).
# Several values for one entry are separate records, joined by “and”; a condition that tells them apart may be missing. Equal entries are not always repeated. Records with an inconclusive call do not appear. Activity calls are given as the source filed them.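 The calls were made as follows: active = loss of yeast growth signal with half-maximal concentration no more than ten times the top tested dose, in every run; inconclusive = runs disagree, or a weak flat curve or poor fit; inactive = inactive in every run.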
# Legend:
# [1] = system: S. cerevisiae expressing PfHsp90, BacTiter-Glo ATP luminescence, 48 h; assay: reduced ATP viability signal of PfHsp90 yeast – S. cerevisiae, BacTiter-Glo luminescence, dry powder samples, antimalarial PfHsp90 inhibitor project, dose response (AID 588396)
# [2] = as above; settings: S. cerevisiae expressing PfHsp90, BacTiter-Glo ATP luminescence, 48 h; at 26 µM (top of the series)
Structure (SMILES),AC50 [1] [µM],"activity change, negative = inhibition [2]"
O=C(O)/C=C/c1cn(-c2ccccc2)nc1-c1cc2ccccc2o1,9.7,
Cc1ccc(N2C(=O)C3C4C=CC(CNC(=S)Nc5ccc(F)cc5)(O4)C3C2=O)cc1 (stereo not given),26.3,
CCOc1cc(S(=O)(=O)NC2CCCCCC2)ccc1F,7.34,
Nc1c2ccccc2nc2ccccc12 (tested in a mixture with another compound),,51.8% (inactive) and 38.4% (inactive)
COc1ccc2c(c1)[nH]c1c(C)nccc12,,217% (inactive)
Cc1ccc(O)c(NC(=S)NC(=O)c2ccc(-c3ccc(Cl)cc3)o2)c1,6.37,
O=C1C(Cl)=C(Oc2ccccc2)C(=O)c2ccccc21,0.974,
O=S(=O)(NC1CC2CCC1C2)c1ccc(Cl)cc1 (stereo not given),3.25,
O=C(CSCC(=O)N1CCCCC1)Nc1nc(-c2ccc(Cl)s2)cs1,14.5,
Cc1ccc(N2C(=O)C3C4C=CC(CNC(=S)Nc5cccc(Cl)c5)(O4)C3C2=O)cc1 (stereo not given),,-41.4% (inactive)
O=S(=O)(NC1CCCCCC1)c1ccc(Br)s1,1.34,
O=S(=O)(/C=C/c1ccccc1)NC1CCCCCCC1,6.52,
O=C1C(Cl)=C(NCCc2ccccc2)C(=O)c2ccccc21,,1.42% (inactive)
COc1ccc2c(c1)C=C(C(=O)NCc1ccc(Cl)cc1)CO2,8.85,
CCN(CC)c1ccc(/C=C2/SC(=O)N(C(C)C)C2=O)o1,12.2,
